# Test results reported in patent US20120088279A1, “ALGAL LIPID PRODUCTION” (Phycal, Inc., priority 2009, published 2012).
# Tested on: Nannochloropsis sp.
# Test: Pulsed chlorate stress with non-destructive lipid extraction of algae culture
# Assay type: cell-based
# Details: chlorate stress 18 hours under nutrient-replete conditions, repeated cycles, compared to identical system with the cycle carried out only once
# Source text: Nannochloropsis sp., a unicellular alga capable of producing large amounts of triacylglycerides, can be grown in f/2 medium with 1/3rd strength Instant Ocean under indoor lighting in 800 L raceway systems either kept moving with a submerged pump or paddlewheel. The algae are first grown under normal, nutrient replete conditions. Upon achieving a set concentration in culture sufficient for economical extraction (e.g., 1.0 g/L), an amount of chlorate sufficient to block nitrogen uptake by the Nannochloropsis is added. The Nannochloropsis culture is then allowed to grow under these conditions of nutrient assimilation inhibition for 18 hours. Twenty five percent of the algae culture is then removed and subjected to a non-destructive extraction process, while ammonia is added to the remaining in an amount sufficient to renew normal nitrogen uptake.
# The removed portion of the culture is then mixed with dodecane or undecane or a mixture of the two for 15 minutes, during which sonication is applied for 2 seconds at 40 kHz. The mixture is partitioned with the upper solvent level removed by decanting, and the lower aqueous layer is then returned to the original algae culture, in which non-stressed growth has resumed as a result of the addition of ammonia. […]
smiles,measurement,value
[O-][Cl+2]([O-])O [chlorate],levels of lipid obtained during subsequent cycles,higher levels of lipid
